Experimental data reported in patent US9999614B2, “Combination for the prophylaxis and treatment of behavioural, mental, and cognitive disorders” (LTD “VALENTA-INTELLEKT”, priority 2012, dated 2018).

Tested on: amnesia in mice, as caused by scopolamine
Test: CPAR, model of amnesia caused by scopolamine
Format: in vivo
Conditions: for Latent time of entering into the dark chamber / Number of mice not entered into the dark chamber, % / Number of mice taught to CPAR (%): scopolamine 1 mg/kg i.p., Melatonin 5 mg, Memantin 10 mg mono-use; for Number of mice taught to CPAR (%): agents i.p. once a day for 5 days; for Effect on scopolamine amnesia of the skill (in words): summary of Tables 3-4
Protocol: For this, the active substances Melatonin 3 mg/Memantin 10 mg, Melatonin 5 mg/Memantin 20 mg, Melatonin 10 mg/Memantin 20 mg were taken, and doses recommended for human beings were converted into doses adapted for mice according to the formula “(active substance/70(average weight of a human being))×7”. Then the compositions were dissolved in 5 mL of the solution and, according to the given formula, introduced to animals intraperitoneally once a day for 5 days.
The CPAR test is the main model for evaluating substance influences on formation and replication of short-time memory in a normal condition and in an abnormal condition, i.e., induced amnesia. The CPAR is the most informative method among the methods that are used today for evaluating efficiency of substances with influence on the CNS of mammals (see, “Manual for Experimental (Pre-Clinical) Studies of New Pharmacological Substances”, 2000). The CPAR (conditioned passive avoidance reflex in a dark, light chamber) was taught to the mice on the basis of electrodermal response according to the method proposed by Cumin et al. (1982) with due regard to the recommendations given by Mondadori et al. (1990). The installation for mice, as produced by Lafayette Instrument Co., USA, was a black chamber with the electrode floor and a white plastic platform that was arranged on the floor in the center of the chamber. The mice, one by one, were put onto the plastic platform. The animals went/jumped down onto the electrode floor where they received an electric current shock, i.e., punishment. Electric current was supplied after the time when an animal stood on the floor with all its four legs. The natural response of the animals is to go back to the current-free or safe platform. […] Tests for memorizing CPAR were conducted in successive time intervals after amnesic action. In a case where an animal went/jumped down onto the platform within 1 minute, it was recorded as having retrograde amnesia of the passive avoidance skill. The compositions were studied in comparison with Melatonin 5 mg (mono-use) and Memantin 10 mg (mono-use), according to the above formula for adapting to animal models.
The compositions under study were dissolved in 5 mL of the solution and, according to the above formula, introduced to the animals intraperitoneally, once a day for 5 days.

Compound | Latent time of entering into the dark chamber (1 day after teaching) | Number of mice not entered into the dark chamber, % (1 day after teaching) | Latent time of entering into the dark chamber (3 days after teaching) | Number of mice not entered into the dark chamber, % (3 days after teaching) | Latent time of entering into the dark chamber (7 days after teaching) | Number of mice not entered into the dark chamber, % (7 days after teaching) | Latent time of entering into the dark chamber (10 days after teaching) | Number of mice not entered into the dark chamber, % (10 days after teaching) | Number of mice taught to CPAR (%) | Effect on scopolamine amnesia of the skill (in words)
COc1ccc2[nH]cc(CCNC(C)=O)c2c1 [Melatonin, N-acetyl-5-methoxytriptamine] | 111.3 ± 15.7 s | 58.3% | 107.4 ± 21.2 s | 54.5% | 105.8 ± 17.4 s | 45.4% | 101.2 ± 20.6 s | 36.3% | 66.7% | influenced on amnesia of the skill obtained, but insignificantly
CC12CC3CC(C)(C1)CC(N)(C3)C2 [Memantin] | 110.8 ± 25.8 s | 50% | 114.4 ± 18.2 s | 60% | 111.1 ± 21.2 s | 40% | 108.6 ± 18.7 s | 40% | 70% | influenced on amnesia of the skill obtained, but insignificantly
